Data from US10376520B2, “Methods for the treatment of cardiovascular disorders” (Galapagos NV, priority 2015, dated 2019).

Legend:
Format in all cases: in vivo, human
RA patients [1] = test: Plasma Serum Amyloid A (SAA) concentration (ELISA), Study 4; details: for SAA level, 4 weeks CFB: 4 weeks change from baseline
Method: (§1) Randomized double-blind, placebo-controlled add on study in subjects with active RA who have an inadequate response to MTX monotherapy, in combination with methotrexate, administered for 4 weeks in the treatment of subjects with active rheumatoid arthritis who have an inadequate response to methotrexate alone.
(§2) Compound 1 (dosed as a [Compound 1:HCl:3H2O]) capsules administered orally in 30 mg, 75 mg, 150 mg, or 300 mg doses per day for 4 weeks.
Plasma SAA concentration was determined using a commercial available Novex ELISA kit from Life technologies (Bleiswijk, The Netherlands) according to manufacturer's instruction. Catalogue number KHA0011, lot number used: 1433688A.

RA patients [2] = test: Plasma total cholesterol level (Selectra autoanalyzer), Study 4; details: for Total cholesterol level, 4 weeks CFB: 4 weeks change from baseline
Method: as §1, §2
Triglycerides, [HDL] cholesterol, and plasma cholesterol were measured on the Selectra autoanalyzer (Sopachem BV, 44-RI Straat 33, 4051 AP Ochten, The Netherlands). All assays were commercially available from DiaSys Diagnostic Systems GmbH, Alte Strasse 9, 65558 Holzheim, Germany. […]

RA patients [3] = test: Plasma ApoC-II concentration (ELISA), Study 4; details: 4 weeks change from baseline
Method: as §1, §2
Plasma ApoC-II and ApoC-III concentrations are determined using commercial available ELISA kits from Abnova (9th Floor, No. 108, Jhouzih St., Neihu District. Taipei City, 114, Taiwan) according to manufacturer's instruction. apoC2: catalogue number KA0464, lot number used: 08871403. apoC3: catalogue number KA0465, lot number used: 02961525.

[4] = system: Japanese and Caucasian healthy subjects; test: LDL determination, Study 3 (healthy volunteers); details: for [LDL] % Mean % variation vs baseline 10 days: 200 mg q.d.; for [LDL] levels: Study 3
Method: Randomized, double-blind, placebo-controlled study for the assessment of safety, tolerability, pharmacokinetics, and pharmacodynamics, of multiple oral doses of Compound 1 (dosed as a [Compound 1:HCl:3H2O]) in Japanese and Caucasian healthy subjects.
Randomized, double-blind, placebo-controlled, single center, sequential design study.
Compound 1 (dosed as a [Compound 1:HCl:3H2O]) is administered for 10 days as oral film-coated tablet (25 and 100 mg and matching placebos). Placebo are provided as a matching tablet.
The study drug is ingested with 240 mL water after a standardized breakfast on Days 2-9. On PK days (Day 1 and Day 10) the study drug is administered in a fasted state (subjects will receive lunch 4 h after dosing on Day 1 and Day 10).
10 Japanese subjects (6 active, 4 placebo) and 10 Caucasian subjects (6 active, 4 placebo) will receive once daily an oral dose of 200 mg Compound 1 (dosed as a [Compound 1:HCl:3H2O]) or matching placebo as two tablets of 100 mg or matching placebo for 10 days. For practical reasons, these subjects may be split over separate groups, each group consisting of an equal number of Japanese and Caucasian Compound 1 (dosed as a [Compound 1:HCl:3H2O]) treated subjects and Japanese and Caucasian placebo subjects.
The determination of [LDL]-cholesterol is made using an automated method taking advantage of the selective micellary solubilization of [LDL]-cholesterol by a nonionic detergent and the interaction of a sugar compound and lipoproteins (VLDL and chylomicrons).
When a detergent is included in the enzymatic method for cholesterol determination (cholesterol esterase, cholesterol oxidase coupling reaction), the relative reactivities of cholesterol in the lipoprotein fractions increase in this order: [HDL]<chylomicrons <VLDL <[LDL]. In the presence of Mg^2+, a sugar compound markedly reduces the enzymatic reaction of the cholesterol measurement in VLDL and chylomicrons. The combination of a sugar compound with detergent enables the selective determination of [LDL]-cholesterol in serum. (Friedewald et al., 1972; Rifai et al., 1992)
Homogeneous enzymatic colorimetric assay.
In the presence of peroxidase, the hydrogen peroxide generated reacts with 4-aminoantipyrine and Sodium N-(2-hydroxy-3-sulfopropyl)-3,5-dimethoxyaniline (HSDA) to form a purple-blue dye.
The color intensity of this dye is directly proportional to the cholesterol concentration and is measured photometrically.
Human serum and plasma samples [LDL] determination was done on a Roche/Hitachi Cobas c 701/702 system which automatically calculate the analyte concentration of each sample. Samples containing precipitates are centrifuged before performing the assay.

RA patients [5] = test: ApoA-I level (Selectra autoanalyzer), Study 4; details: for ApoA-I level, 4 weeks CFB: 4 weeks change from baseline
Method: as §1, §2
ApoAI, and ApoB were measured on the Selectra autoanalyzer (Sopachem BV, 44-RI Straat 33, 4051 AP Ochten, The Netherlands). All assays were commercially available from DiaSys Diagnostic Systems GmbH, Alte Strasse 9, 65558 Holzheim, Germany.

RA patients [6] = test: Plasma CETP concentration (ELISA), Study 4; details: for CETP level, 4 weeks CFB: 4 weeks change from baseline
Method: as §1, §2
Plasma CETP concentration was determined using a commercial available ELISA kit from Alpco (26-G Keewaydin Drive, Salem, N.H. 03079 USA) according to manufacturer's instruction. Catalogue number 47-CETH-E01, lot number used: 812RCL.

Structure (SMILES): O=C(Nc1nc2cccc(-c3ccc(CN4CCS(=O)(=O)CC4)cc3)n2n1)C1CC1 [Compound 1, cyclopropanecarboxylic acid {5-[4-(1,1-dioxo-thiomorpholin-4-ylmethyl)-phenyl]-[1,2,4]triazolo[1,5-a]pyridin-2yl}-amide]
- SAA level, 4 weeks CFB (RA patients [1]; 30 mg q.d.): −15.4%
- SAA level, Baseline (RA patients [1]; 30 mg q.d.): 935.4 ng/mL
- SAA level, week 4 (RA patients [1]; 30 mg q.d.): 436.2 ng/mL
- SAA level, 4 weeks CFB (RA patients [1]; 75 mg q.d.): −13.5%
- SAA level, Baseline (RA patients [1]; 75 mg q.d.): 883.7 ng/mL
- SAA level, week 4 (RA patients [1]; 75 mg q.d.): 201.3 ng/mL
- SAA level, 4 weeks CFB (RA patients [1]; 150 mg q.d.): −56.7%
- SAA level, Baseline (RA patients [1]; 150 mg q.d.): 621.3 ng/mL
- SAA level, week 4 (RA patients [1]; 150 mg q.d.): 388.5 ng/mL
- SAA level, 4 weeks CFB (RA patients [1]; 300 mg q.d.): −62.0%
- SAA level, Baseline (RA patients [1]; 300 mg q.d.): 555.6 ng/mL
- SAA level, week 4 (RA patients [1]; 300 mg q.d.): 43.2 ng/mL
- Total cholesterol level, 4 weeks CFB (RA patients [2]; 30 mg q.d.): 25.9%
- Total cholesterol level, Baseline (RA patients [2]; 30 mg q.d.): 4.9 mM
- Total cholesterol level, week 4 (RA patients [2]; 30 mg q.d.): 5.8 mM
- Total cholesterol level, 4 weeks CFB (RA patients [2]; 75 mg q.d.): 5.2%
- Total cholesterol level, Baseline (RA patients [2]; 75 mg q.d.): 4.9 mM
- Total cholesterol level, week 4 (RA patients [2]; 75 mg q.d.): 5.1 mM
- Total cholesterol level, 4 weeks CFB (RA patients [2]; 150 mg q.d.): −1.2%
- Total cholesterol level, Baseline (RA patients [2]; 150 mg q.d.): 5 mM
- Total cholesterol level, week 4 (RA patients [2]; 150 mg q.d.): 5 mM
- Total cholesterol level, 4 weeks CFB (RA patients [2]; 300 mg q.d.): 19.4%
- Total cholesterol level, Baseline (RA patients [2]; 300 mg q.d.): 4.7 mM
- Total cholesterol level, week 4 (RA patients [2]; 300 mg q.d.): 5.7 mM
- ApoC-II level, 4 weeks CFB (RA patients [3]; 30 mg q.d.): 11.2%
- ApoC-II level, 4 weeks CFB (RA patients [3]; 75 mg q.d.): 23.3%
- ApoC-II level, 4 weeks CFB (RA patients [3]; 150 mg q.d.): 8.6%
- ApoC-II level, 4 weeks CFB (RA patients [3]; 300 mg q.d.): 37.0%
- [LDL] % Mean % variation vs baseline 10 days ([4]; Caucasian): −1.3%
- [LDL] % Mean % variation vs baseline 10 days ([4]; Japanese): −8.9%
- [LDL] levels ([4]; Caucasian 200 mg q.d. for 10 days, day 17): 2.5 mmol/L
- [LDL] levels ([4]; Caucasian 200 mg q.d., day 0): 2.6 mmol/L
- [LDL] levels ([4]; Caucasian 200 mg q.d., day 5): 2.6 mmol/L
- [LDL] levels ([4]; Caucasian 200 mg q.d., day 10): 2.4 mmol/L
- [LDL] levels ([4]; Japanese 200 mg q.d. for 10 days, day 17): 2.7 mmol/L
- [LDL] levels ([4]; Japanese 200 mg q.d., day 0): 2.7 mmol/L
- [LDL] levels ([4]; Japanese 200 mg q.d., day 5): 2.5 mmol/L
- [LDL] levels ([4]; Japanese 200 mg q.d., day 10): 2.5 mmol/L
- ApoA-I level, 4 weeks CFB (RA patients [5]; 30 mg q.d.): 5.2%
- ApoA-I level, Baseline (RA patients [5]; 30 mg q.d.): 148 mg/dL
- ApoA-I level, week 4 (RA patients [5]; 30 mg q.d.): 155 mg/dL
- ApoA-I level, 4 weeks CFB (RA patients [5]; 75 mg q.d.): 9.8%
- ApoA-I level, Baseline (RA patients [5]; 75 mg q.d.): 142 mg/dL
- ApoA-I level, week 4 (RA patients [5]; 75 mg q.d.): 156 mg/dL
- ApoA-I level, 4 weeks CFB (RA patients [5]; 150 mg q.d.): 5.5%
- ApoA-I level, Baseline (RA patients [5]; 150 mg q.d.): 140 mg/dL
- ApoA-I level, week 4 (RA patients [5]; 150 mg q.d.): 147 mg/dL
- ApoA-I level, 4 weeks CFB (RA patients [5]; 300 mg q.d.): 27.9%
- ApoA-I level, Baseline (RA patients [5]; 300 mg q.d.): 143 mg/dL
- ApoA-I level, week 4 (RA patients [5]; 300 mg q.d.): 179 mg/dL
- CETP level, 4 weeks CFB (RA patients [6]; 30 mg q.d.): 2.4%
- CETP level, Baseline (RA patients [6]; 30 mg q.d.): 3.2 µg/mL
- CETP level, week 4 (RA patients [6]; 30 mg q.d.): 3.2 µg/mL
- CETP level, 4 weeks CFB (RA patients [6]; 75 mg q.d.): −2.8%
- CETP level, Baseline (RA patients [6]; 75 mg q.d.): 2.8 µg/mL
- CETP level, week 4 (RA patients [6]; 75 mg q.d.): 2.7 µg/mL
- CETP level, 4 weeks CFB (RA patients [6]; 150 mg q.d.): −11.4%
- CETP level, Baseline (RA patients [6]; 150 mg q.d.): 2.8 µg/mL
- CETP level, week 4 (RA patients [6]; 150 mg q.d.): 2.3 µg/mL
- CETP level, 4 weeks CFB (RA patients [6]; 300 mg q.d.): −10.2%
- CETP level, Baseline (RA patients [6]; 300 mg q.d.): 2.5 µg/mL
- CETP level, week 4 (RA patients [6]; 300 mg q.d.): 2.2 µg/mL
